test system: RBL-2H3; assay: Inhibition of DNP7-BSA antigen-induced TNFalpha release in rat RBL-2H3 cells; format: functional, cell-based

Row | Structure (SMILES) | IC50 [nM]
1 | Oc1ccc(-c2c(O)c(O)c3c(oc4cc(O)c(O)cc43)c2O)cc1 [CYCLOLEUCOMELONE] | 3500
2 | O=C(Cc1ccccc1)Oc1c(-c2ccc(O)cc2)c(OC(=O)Cc2ccccc2)c2oc3cc(O)c(O)cc3c2c1OC(=O)Cc1ccccc1 [GANBAJUNIN B] | 5000
3 | C=CC[C@@H]1/C=C(\C)C[C@H](C)C[C@H](OC)[C@H]2O[C@@](O)(C(=O)C(=O)N3CCCC[C@H]3C(=O)O[C@H](/C(C)=C/[C@@H]3CC[C@@H](O)[C@H](OC)C3)[C@H](C)[C@@H](O)CC1=O)[C@H](C)C[C@@H]2OC [TACROLIMUS ANHYDROUS] | 0.25
4 | O=C(Cc1ccccc1)Oc1c(-c2ccc(O)cc2)c(O)c2oc3cc(O)c(O)cc3c2c1OC(=O)Cc1ccccc1 [VIALININ B] | 0.02

Source: ChEMBL document CHEMBL1137286, “Vialinin B, a novel potent inhibitor of TNF-alpha production, isolated from an edible mushroom, Thelephora vialis” (Bioorg Med Chem Lett, 2006)
